Like-named read-outs stand apart in the source and are kept apart here.
How the values were obtained:
Assay in all cases: Radioligand binding assay (NIMH PDSP)
Alpha1A (α1A) = biological target: T1, Alpha1A (α1A) (Homo sapiens, UniProt P35348)
T1 sequence (P35348 1-466): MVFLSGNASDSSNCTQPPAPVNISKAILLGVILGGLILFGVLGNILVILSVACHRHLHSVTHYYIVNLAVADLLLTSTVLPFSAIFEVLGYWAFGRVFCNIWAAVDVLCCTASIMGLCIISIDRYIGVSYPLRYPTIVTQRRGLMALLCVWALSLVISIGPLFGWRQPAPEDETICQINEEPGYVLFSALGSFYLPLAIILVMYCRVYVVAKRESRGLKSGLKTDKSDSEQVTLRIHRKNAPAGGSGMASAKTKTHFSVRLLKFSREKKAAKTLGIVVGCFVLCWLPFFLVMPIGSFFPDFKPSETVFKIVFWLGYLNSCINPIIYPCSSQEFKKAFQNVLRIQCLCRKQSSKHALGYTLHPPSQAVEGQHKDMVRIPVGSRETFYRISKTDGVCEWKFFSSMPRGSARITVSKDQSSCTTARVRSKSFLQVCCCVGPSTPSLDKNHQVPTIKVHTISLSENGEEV
Experimental: (§1) Compound EU93-108 was also tested for inhibition of binding of probes to a range of GPCRs and other targets (Table 4 and Supporting Table S4). […] EU93-108 produced significant displacement of binding probes for the 5-HT2 receptors and α-1-adrenergic receptors, as well as D3, H1, and σ1 receptors. Concentration–response binding competition curves for these targets were used to determine Ki values (Table 4). Given that the brain concentration of EU93-108 achieved 30 min post i.p. injection is 18 μM (Figure 6), the doses that yield our desired antinociceptive effects may engage some of the receptors listed in Table 4.
(§2) Conventional competition and saturation radioligand binding assays were used to determine the affinities of reference standards and EU93-108. Experiments were carried out by the NIMH Psychoactive Drug Screening Program (PDSP) and were performed as previously described.[123]
(§3) The detailed experimental protocols for the radioligand assays are available on the NIMH PDSP website at https://pdsp.unc.edu/pdspweb/content/UNC-CH%20Protocol%20Book.pdf.
(§4) Receptor Mean % Receptor Mean % Receptor Mean %
(§5) Inhibition Inhibition Inhibition
(§6) Supplemental Table S4. Off-Target Actions of EU93-108: Primary GPCR Screen. Cloned human molecular targets were individually expressed and submitted to molecular target-based screening with initial screens performed at a final concentration of 10 µM in quadruplicate. Complete protocols for the assays have been previously published (Besnard J et al. 2012). Where inhibition greater than 50% was measured, secondary screens were performed wherein Ki values were calculated (see Table 4).

Alpha1D (α1D) = biological target: T2, Alpha1D (α1D) (Homo sapiens, UniProt P25100)
T2 sequence (P25100 1-572): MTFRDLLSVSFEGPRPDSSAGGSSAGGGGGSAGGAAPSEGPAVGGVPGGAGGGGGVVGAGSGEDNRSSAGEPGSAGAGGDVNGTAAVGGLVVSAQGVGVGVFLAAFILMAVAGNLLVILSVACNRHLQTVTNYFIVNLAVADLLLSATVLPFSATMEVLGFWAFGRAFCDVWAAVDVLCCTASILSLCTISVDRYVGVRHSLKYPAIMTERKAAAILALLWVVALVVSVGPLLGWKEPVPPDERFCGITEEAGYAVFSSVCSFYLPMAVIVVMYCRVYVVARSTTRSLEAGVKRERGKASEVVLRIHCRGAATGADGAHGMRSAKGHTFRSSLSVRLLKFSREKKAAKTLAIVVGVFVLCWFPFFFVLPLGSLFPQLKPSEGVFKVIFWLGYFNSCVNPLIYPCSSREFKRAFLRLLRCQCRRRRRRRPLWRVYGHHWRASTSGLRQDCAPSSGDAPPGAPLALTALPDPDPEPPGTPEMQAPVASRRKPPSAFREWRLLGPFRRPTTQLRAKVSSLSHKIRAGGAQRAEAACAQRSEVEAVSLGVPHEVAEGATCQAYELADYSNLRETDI
Experimental: as §1, §2, §3, §4, §5, §6

Alpha2C (α2C) = biological target: T3, Alpha2C (α2C) (Homo sapiens, UniProt P18825)
T3 sequence (P18825 1-462): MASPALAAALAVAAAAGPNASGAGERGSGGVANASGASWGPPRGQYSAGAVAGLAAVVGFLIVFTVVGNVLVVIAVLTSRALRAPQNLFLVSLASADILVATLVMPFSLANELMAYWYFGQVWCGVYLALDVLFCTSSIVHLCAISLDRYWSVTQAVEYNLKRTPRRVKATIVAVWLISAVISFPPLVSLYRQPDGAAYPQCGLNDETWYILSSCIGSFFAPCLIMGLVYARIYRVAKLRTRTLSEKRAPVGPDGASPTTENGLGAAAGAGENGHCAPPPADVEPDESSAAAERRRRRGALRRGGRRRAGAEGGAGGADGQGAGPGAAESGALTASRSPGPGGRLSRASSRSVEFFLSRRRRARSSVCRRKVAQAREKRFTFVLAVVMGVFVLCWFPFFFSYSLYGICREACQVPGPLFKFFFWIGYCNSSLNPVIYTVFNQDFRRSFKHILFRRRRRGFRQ
Experimental: as §1, §2, §3, §4, §5, §6

H1 = H1 (Homo sapiens, UniProt P35367); conditions: for Ki: secondary screen, binding competition curve
Experimental: as §1, §2, §3, §4, §5, §6

5-HT2C = biological target: T4, 5-HT2C (Homo sapiens, UniProt P28335)
T4 sequence (P28335 33-458): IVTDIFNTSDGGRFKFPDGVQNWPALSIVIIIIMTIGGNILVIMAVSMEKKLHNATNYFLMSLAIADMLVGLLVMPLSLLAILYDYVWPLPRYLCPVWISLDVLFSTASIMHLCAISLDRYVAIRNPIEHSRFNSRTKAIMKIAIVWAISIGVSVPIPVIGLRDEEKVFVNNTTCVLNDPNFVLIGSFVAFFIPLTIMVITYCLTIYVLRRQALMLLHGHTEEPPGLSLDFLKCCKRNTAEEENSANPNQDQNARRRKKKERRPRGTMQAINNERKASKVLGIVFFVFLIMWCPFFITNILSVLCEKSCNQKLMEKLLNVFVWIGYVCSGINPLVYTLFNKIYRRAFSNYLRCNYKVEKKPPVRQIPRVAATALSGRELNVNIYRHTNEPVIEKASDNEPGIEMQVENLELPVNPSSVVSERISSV
Experimental: as §1, §2, §3, §4, §5, §6

5-HT2A = 5-HT2A (Homo sapiens, UniProt P28223)
Experimental: as §1, §2, §3, §4, §5, §6

[1] = primary screen, 10 µM, quadruplicate
[2] = ratio of Ki to the IC50 for EU93-108 (555 nM) at GluN2B
[3] = secondary screen, binding competition curve

Chain of H1 (P35367 whole entry): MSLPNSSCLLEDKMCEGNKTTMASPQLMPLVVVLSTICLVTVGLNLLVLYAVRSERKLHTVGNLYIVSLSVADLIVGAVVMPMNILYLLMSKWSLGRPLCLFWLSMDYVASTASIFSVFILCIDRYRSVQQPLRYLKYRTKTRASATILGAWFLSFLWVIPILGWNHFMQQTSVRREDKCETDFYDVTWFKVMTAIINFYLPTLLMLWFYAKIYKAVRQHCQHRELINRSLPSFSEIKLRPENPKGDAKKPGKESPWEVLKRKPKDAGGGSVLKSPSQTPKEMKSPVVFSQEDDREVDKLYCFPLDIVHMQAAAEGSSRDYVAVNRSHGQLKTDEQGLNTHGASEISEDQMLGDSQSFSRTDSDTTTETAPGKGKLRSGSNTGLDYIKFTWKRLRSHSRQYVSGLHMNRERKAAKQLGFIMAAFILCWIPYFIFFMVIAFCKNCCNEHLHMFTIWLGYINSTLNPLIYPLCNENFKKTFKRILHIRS
Chain of 5-HT2A (P28223 whole entry): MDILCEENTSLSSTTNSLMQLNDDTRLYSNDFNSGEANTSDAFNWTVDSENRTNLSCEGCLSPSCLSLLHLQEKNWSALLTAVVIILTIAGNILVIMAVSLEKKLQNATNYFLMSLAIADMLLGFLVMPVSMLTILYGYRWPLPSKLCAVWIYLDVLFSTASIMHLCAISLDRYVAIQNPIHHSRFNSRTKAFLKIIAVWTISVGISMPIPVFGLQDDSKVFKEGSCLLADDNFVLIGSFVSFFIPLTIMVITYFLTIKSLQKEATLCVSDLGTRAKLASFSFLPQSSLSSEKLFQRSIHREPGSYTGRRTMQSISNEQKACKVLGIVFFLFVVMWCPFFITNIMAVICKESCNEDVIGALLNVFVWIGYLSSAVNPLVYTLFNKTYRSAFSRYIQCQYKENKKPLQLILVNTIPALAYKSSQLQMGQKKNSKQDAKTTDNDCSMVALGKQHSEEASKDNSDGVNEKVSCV

CS(=O)(=O)Nc1ccc(OC[C@@H](O)CN2CCN(c3ccc(F)c(F)c3)CC2)cc1 [EU93-108, (S)-N-(4-(3-(4-(3,4-Difluorophenyl)piperazin-1-yl)-2-hydroxypropoxy)phenyl)methanesulfonamide]
inhibition at 10 µM (Alpha1A (α1A); [1]): 86.3% | Ki/IC50 of EU93-108 (Alpha1A (α1A); [2]): 0.31 | Ki (Alpha1A (α1A); [3]): 170 nM | inhibition at 10 µM (Alpha1D (α1D); [1]): 76.7% | Ki/IC50 of EU93-108 (Alpha1D (α1D); [2]): 0.65 | Ki (Alpha1D (α1D); [3]): 359 nM | inhibition at 10 µM (Alpha2C (α2C); [1]): 63% | Ki/IC50 of EU93-108 (Alpha2C (α2C); [2]): 1.55 | Ki (Alpha2C (α2C); [3]): 862 nM | inhibition at 10 µM (H1; [1]): 76.9% | Ki/IC50 of EU93-108 (H1; [2]): 0.46 | Ki (H1; read-out: Ki): 254 nM | Ki (H1; read-out: log(Ki) (converted)): 257 nM | inhibition at 10 µM (5-HT2C; [1]): 71.3% | Ki/IC50 of EU93-108 (5-HT2C; [2]): 3.28 | Ki (5-HT2C; [3]): 1820 nM | inhibition at 10 µM (5-HT2A; [1]): 83.8% | Ki/IC50 of EU93-108 (5-HT2A; [2]): 0.88 | Ki (5-HT2A; [3]): 490 nM
